From US12570659B2, “Bicyclic heteroaryl compounds useful as IRAK4 inhibitors” (BRISTOL-MYERS SQUIBB COMPANY, priority 2019, dated 2026)

What was measured:
[1] = test system: TLR2 agonist-stimulated IL-6 in human whole blood; experiment: IRAK4 Whole Blood Assay; type: cell-based; conditions: lipoteichoic acid 10 μg/mL, 5 hours, IL-6 levels
Method: Human whole blood containing the anti-coagulant ACD-A was plated in 384-well plate (25 μL/well) and incubated with compounds for 60 minutes at 37° C. in a 5% CO2 incubator. The blood was stimulated with a TLR2 agonist, 10 μg/mL final concentration of lipoteichoic acid (Invivogen, San Diego, CA) in 25 μL RPMI (Gibco) for 5 hours in a 5% CO2 incubator. At the end of the incubation, plates were centrifuged at 2300 rpm for 5 minutes. Supernatants were harvested and analyzed for IL-6 levels by Flow Cytometry beads assay (BD Biosciences, San Jose, CA).

IRAK4 = IRAK4 (Homo sapiens (Human), UniProt Q9NWZ3); experiment: IRAK4 Inhibition Assay; type: biochemical; conditions: ATP 500 μM; IRAK4 0.6 nM; 60 min room temperature
Chain of IRAK4 (Q9NWZ3 whole entry, species assumed): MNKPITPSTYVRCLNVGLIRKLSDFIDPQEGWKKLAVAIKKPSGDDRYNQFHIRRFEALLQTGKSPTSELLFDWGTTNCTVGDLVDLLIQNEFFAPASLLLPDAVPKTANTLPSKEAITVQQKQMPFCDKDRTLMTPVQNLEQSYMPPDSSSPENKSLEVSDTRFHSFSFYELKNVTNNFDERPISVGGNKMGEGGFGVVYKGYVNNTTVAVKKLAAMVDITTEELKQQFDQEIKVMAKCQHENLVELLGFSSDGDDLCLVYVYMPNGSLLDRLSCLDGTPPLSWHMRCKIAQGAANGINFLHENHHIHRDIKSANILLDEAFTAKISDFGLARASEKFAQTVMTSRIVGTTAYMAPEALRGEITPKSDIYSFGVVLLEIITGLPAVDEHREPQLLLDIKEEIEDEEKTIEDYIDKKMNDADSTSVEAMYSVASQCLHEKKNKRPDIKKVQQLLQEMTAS
Method in brief: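 Phosphorylated and unphosphorylated fluorescent substrate were resolved by microfluidic electrophoresis after termination with 35 mM EDTA. The room-temperature kinase reaction lasted 60 min after IRAK4, substrates and test compound were combined; vehicle-only defined 0% and no-enzyme 100% inhibition.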

JAK3 kinase = JAK3 kinase (Homo sapiens (Human), UniProt P52333); experiment: JAK3 Homogeneous Time Resolved Fluorescence (HTRF) Assay; type: binding; conditions: for IC50: competition binding with fluorescein-labeled ATP competitive probe; for Ratio of JAK3 IC50 to IRAK4 IC50: selectivity for IRAK4 over JAK3
Chain of JAK3 kinase (P52333 whole entry): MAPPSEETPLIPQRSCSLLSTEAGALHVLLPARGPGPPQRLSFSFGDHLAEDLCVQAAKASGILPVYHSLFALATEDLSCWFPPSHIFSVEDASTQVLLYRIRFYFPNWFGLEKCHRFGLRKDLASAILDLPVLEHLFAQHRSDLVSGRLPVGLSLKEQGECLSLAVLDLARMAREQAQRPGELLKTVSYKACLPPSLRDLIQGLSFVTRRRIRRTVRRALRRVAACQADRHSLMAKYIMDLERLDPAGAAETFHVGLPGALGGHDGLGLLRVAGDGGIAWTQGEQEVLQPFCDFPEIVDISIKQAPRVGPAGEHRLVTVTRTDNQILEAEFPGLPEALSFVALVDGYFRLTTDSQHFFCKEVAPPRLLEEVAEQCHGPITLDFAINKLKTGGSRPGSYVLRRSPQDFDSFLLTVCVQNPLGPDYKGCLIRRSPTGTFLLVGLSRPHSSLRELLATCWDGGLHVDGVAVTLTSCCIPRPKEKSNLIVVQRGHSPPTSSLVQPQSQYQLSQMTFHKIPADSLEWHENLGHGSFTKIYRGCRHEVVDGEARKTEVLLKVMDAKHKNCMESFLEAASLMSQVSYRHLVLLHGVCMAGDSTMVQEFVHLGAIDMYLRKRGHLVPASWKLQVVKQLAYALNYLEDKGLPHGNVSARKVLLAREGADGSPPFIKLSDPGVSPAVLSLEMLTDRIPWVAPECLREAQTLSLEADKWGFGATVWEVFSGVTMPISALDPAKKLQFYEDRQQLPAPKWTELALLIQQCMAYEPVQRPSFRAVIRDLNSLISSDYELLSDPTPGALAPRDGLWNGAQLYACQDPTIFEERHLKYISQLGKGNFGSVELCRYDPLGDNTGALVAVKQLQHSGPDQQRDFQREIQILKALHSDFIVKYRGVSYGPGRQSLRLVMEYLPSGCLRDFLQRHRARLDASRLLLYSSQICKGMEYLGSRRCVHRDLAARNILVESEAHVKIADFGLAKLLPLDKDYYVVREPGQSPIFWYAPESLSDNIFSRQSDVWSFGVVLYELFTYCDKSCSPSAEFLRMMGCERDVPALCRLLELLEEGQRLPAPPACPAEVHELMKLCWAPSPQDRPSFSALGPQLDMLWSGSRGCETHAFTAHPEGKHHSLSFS
Method in brief: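 IC50 reflects displacement of a fluorescein-labeled ATP-site probe (at its Kd) from 1 nM tagged JAK3, detected via 0.2 nM Tb anti-His or anti-GST antibody. One-hour incubation; 495 and 520 nm emission ratios, background-subtracted, normalized to maximum signal; 11-point percent inhibition, 4-parameter logistic.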

Row | SMILES | IC50 [1] [nM] | IC50 (IRAK4) [nM] | IC50 (JAK3 kinase) [nM] | Ratio of JAK3 IC50 to IRAK4 IC50 (JAK3 kinase)
1 | CC(=O)N[C@H]1CC[C@H](NC(=O)c2cnn3cc(-c4cnccc4C)cc3c2NC(C)C)CC1 [Example 70, N-((1r,4r)-4-acetamidocyclohexyl)-4-(isopropylamino)-6-(4-methylpyridin-3-yl)pyrrolo[1,2-b] pyridazine-3-carboxamide] | > 10000 | 14 | > 50000 | >3571
2 | CC(=O)N[C@H]1CC[C@H](NC(=O)c2cnn3cc(-c4ccncc4)nc3c2NC(C)C)CC1 [Example 108, N-((1r,4r)-4-acetamidocyclohexyl)-8-(isopropylamino)-2-(pyridin-4-yl)imidazo[1,2-b]pyridazine-7-carboxamide] | 890 | 11 | ~49000 | ~4455
3 | CC(=O)N[C@H]1CC[C@H](NC(=O)c2cnn3cc(-c4ccncc4F)cc3c2NC(C)C)CC1 [Example 65, N-((1r,4r)-4-acetamidocyclohexyl)-6-(3-fluoropyridin-4-yl)-4-(isopropylamino)pyrrolo[1,2-b] pyridazine-3-carboxamide] | 360 | 1.6 | > 50000 | >31250
4 | CC(C)Nc1c(C(=O)NC2CCN(S(C)(=O)=O)CC2)cnn2cc(-c3ccc(F)nc3)cc12 [Example 85, 6-(6-fluoropyridin-3-yl)-4-(isopropylamino)-N-(1-(methylsulfonyl)piperidin-4-yl)pyrrolo[1,2-b]pyridazine-3-carboxamide] | 870 | 2.5 | ~31000 | ~12400
5 | CC(C)Nc1c(C(=O)NCCC(C)(C)O)cnn2cc(-c3ccncc3F)nc12 [Example 109, 2-(3-fluoropyridin-4-yl)-N-(3-hydroxy-3-methylbutyl)-8-(isopropylamino)imidazo[1,2-b]pyridazine-7-carboxamide] | > 20000 | 12 | > 50000 | >4167
6 | Cc1cc(F)ncc1-c1cc2c(NC(C)C)c(C(=O)N[C@H]3CC[C@H](C(N)=O)CC3)cnn2c1 [Example 88, N-((1r,4r)-4-carbamoylcyclohexyl)-6-(6-fluoro-4-methylpyridin-3-yl)-4-(isopropylamino)pyrrolo[1,2-b]pyridazine-3-carboxamide] | > 10000 | 7.6 | > 50000 | >6579
7 | CC(C)Nc1c(C(=O)NCCN2CCOCC2)cnn2cc(-c3ccncc3F)cc12 [Example 71, 6-(3-fluoropyridin-4-yl)-4-(isopropylamino)-N-(2-morpholinoethyl)pyrrolo[1,2-b]pyridazine-3-carboxamide] | > 10000 | 7.2 | 7000 | 972
8 | CNC(=O)[C@H]1CC[C@H](NC(=O)c2cnn3cc(-c4ccncc4F)cc3c2NC(C)C)CC1 [Example 87, 6-(3-fluoropyridin-4-yl)-4-(isopropylamino)-N-((1r,4r)-4-(methylcarbamoyl)cyclohexyl) pyrrolo[1,2-b]pyridazine-3-carboxamide] | 260 | 3.1 | > 50000 | >16129
9 | CC(C)Nc1c(C(=O)NC[C@@H](F)C(C)(C)O)cnn2cc(-c3ccc(N)nc3)cc12 [Example 45, (R)-6-(6-aminopyridin-3-yl)-N-(2-fluoro-3-hydroxy-3-methylbutyl)-4-(isopropylamino) pyrrolo[1,2-b]pyridazine-3-carboxamide] | 4680 | 7.9 | ~29000 | ~3671
10 | CC(C)Nc1c(C(=O)N[C@H]2CC[C@H](c3nc[nH]n3)CC2)cnn2cc(-c3ccncc3F)cc12 [Example 93, N-((1r,4r)-4-(1H-1,2,4-triazol-3-yl)cyclohexyl)-6-(3-fluoropyridin-4-yl)-4-(isopropylamino)pyrrolo[1,2-b]pyridazine-3-carboxamide] | 1040 | 2.3 | > 50000 | >21739
11 | CC(C)Nc1c(C(=O)NC[C@@H](F)C(C)(C)O)cnn2cc(-c3cncs3)cc12 [Example 55, (R)—N-(2-fluoro-3-hydroxy-3-methylbutyl)-4-(isopropylamino)-6-(thiazol-5-yl)pyrrolo[1,2-b]pyridazine-3-carboxamide] | > 10000 | 3.9 | > 50000 | >12821
12 | CC(C)Nc1c(C(=O)N[C@H]2CC[C@H](O)CC2)cnn2cc(-c3ccncc3)cc12 [Example 60, N-((1r,4r)-4-hydroxycyclohexyl)-4-(isopropylamino)-6-(pyridin-4-yl)pyrrolo[1,2-b]pyridazine-3-carboxamide] | 3950 | 9.5 | > 50000 | >5263
13 | CC(=O)N[C@H]1CC[C@H](NC(=O)c2cnn3cc(-c4cccnc4F)cc3c2NC(C)C)CC1 [Example 69, N-((1r,4r)-4-acetamidocyclohexyl)-6-(2-fluoropyridin-3-yl)-4-(isopropylamino)pyrrolo[1,2-b]pyridazine-3-carboxamide] | 7010 | 9.2 | ~42000 | ~4565
14 | CC(C)Nc1c(C(=O)N[C@H]2CC[C@H](c3nc[nH]n3)CC2)cnn2cc(-c3ccc(F)nc3)cc12 [Example 92, N-((1r,4r)-4-(1H-1,2,4-triazol-3-yl)cyclohexyl)-6-(6-fluoropyridin-3-yl)-4-(isopropylamino)pyrrolo[1,2-b]pyridazine-3-carboxamide] | 6970 | 10 | > 50000 | >5000
15 | CC(C)Nc1c(C(=O)NC2CCN(S(C)(=O)=O)CC2)cnn2cc(-c3ccncc3F)nc12 [Example 111, 2-(3-fluoropyridin-4-yl)-8-(isopropylamino)-N-(1-(methylsulfonyl)piperidin-4-yl)imidazo[1,2-b]pyridazine-7-carboxamide] | 3730 | 13 | > 50000 | >3846
16 | CC(C)Nc1c(C(=O)NC[C@@H](F)C(C)(C)O)cnn2cc(-c3ccc(C#N)cc3)cc12 [Example 1, (R)-6-(4-cyanophenyl)-N-(2-fluoro-3-hydroxy-3-methylbutyl)-4-(isopropylamino)pyrrolo[1,2-b]pyridazine-3-carboxamide] | > 10000 | 12 | 20000 | 1667
17 | CC(=O)N[C@H]1CC[C@H](NC(=O)c2cnn3cc(-c4ccc(C#N)cc4)cc3c2NC(C)C)CC1 [Example 81, N-((1r,4r)-4-acetamidocyclohexyl)-6-(4-cyanophenyl)-4-(isopropylamino)pyrrolo[1,2-b]pyridazine-3-carboxamide] | > 20000 | 12 | > 50000 | >4167
18 | CC(C)Nc1c(C(=O)NC[C@@H](F)C(C)(C)O)cnn2cc(-c3cccc(C#N)c3)cc12 [Example 2, (R)-6-(3-cyanophenyl)-N-(2-fluoro-3-hydroxy-3-methylbutyl)-4-(isopropylamino) pyrrolo[1,2-b]pyridazine-3-carboxamide] | > 10000 | 12 |  | 
